{"source": "patent US9127291B2", "about": "“Methods and products for biasing cellular development” (University of Central Florida Research Foundation, Inc., priority 2004, dated 2015)", "molecules": {"B1": {"name": "Lhx8: mouse cDNA clone for Lhx8 (SEQ ID NO: 7) inserted into pcDNA 3.1/Zeo mammalian expression vector (nucleic acid, listed as Mus musculus)", "DNA": "GAATTCGGCACGAGCTTCAGGAAAAGACTTTTCCCCCCACTCCCCCTCCTCTCTGCGAGGTTCCACCCTCTGGAAAACACAACTTTCCCTCTTTTTCTGGAGGGACAGGCCTTAGTGTGGCTGAGAGAGGAAGAACAGTGGGTCAGAGAGTGGTTACGTCACTGTGGCCTTTTTGGAACAAGACACACTGGTGGCATCGCTGTCCTGCCTGTTAGCTTTCCTTGGCCTTTGGGGGCGGAGGAGGGGACACTGCGGACACCCACAGCCTCTGACCCTGCTGGAGCTGGTATGTGACGAGCAGCCCTCGGGCCATGTATTGGAAGAGCGATCAGATGTTTGTGTGTAAGCTGGAGGGAAAGGAGATGCCGGAGCTGGCGGTTCCCCGCGAGATGTGCCCCGGGCTCATGTCGGAGGAGTGCGGGCGGCCTGCAGCTGGCGCCGGGAGGACCCGCAAAGGCTCTGGGGAAGAAGGACTGGTGAATCCCGAGGGAGCCGGGGACGAGGACTCCTGCTCCTCCTCGGGCCCGCTTTCCCCGTCGTCCTCGCCCCAGTCCATGGCCTCGGGTCCGATGTGCCCGCCAGGCAAGTGTGTGTGCAGCAGCTGCGGCCTGGAGATTGTGGACAAATACCTCCTCAAGGTGAATGACTTATGCTGGCATGTCCGCTGTCTCTCCTGCAGTGTCTGCAGAACGTCCCTGGGAAGGCACACGAGCTGCTACATTAAGGATAAAGATATTTTCTGTAAACTCGATTACTTCAGACGGTATGGGACCCGCTGTTCCCGCTGTGGCAGGCACATCCACTCGACTGACTGGGTCCGCAGGGCAAAGGGCAACGTGTATCACCTGGCCTGCTTTGCCTGCTTTTCTTGCAAGAGGCAGCTGTCCACGGGAGAGGAGTTCGCCTTGGTGGAGGAGAAGGTCCTCTGTAGAGTGCACTTTGACTGCATGCTGGACAATCTGAAGAGAGAAGTGGAGAACGGTAATGGGATTAGTGTGGAAGGAGCCCTTCTCACAGAGCAAGACGTCAATCATCCAAAGCCAGCCAAAAGAGCTCGGACCAGCTTCACAGCCGATCAGCTCCAGGTTATGCAAGCACAGTTCGCTCAGGACAACAACCCAGATGCACAGACCCTCCAGAAACTGGCAGAAAGGACAGGCTTAAGCAGACGTGTCATACAGGTGTGGTTTCAGAACTGCAGGGCCCGCCATAAGAAACACGTCAGCCCAAACCATTCTTCCTCGGCCCCCGTCACAGCTGTCCCCTCCTCCAGGCTGTCCCCACCCATCTTGGAAGAAATGGCTTATTCTGCCTACGACCCCCAGGATGACGGGATGCTGACTGCGCACTCATACTTGGATGCTCACCAACAACTCCTGGACTCCAGCCCTTGTTACCCCATCCAATGACCCAGCTGCCAATAAGTCATACCTAATTCCTTCTTTCAGGGATAGAAATGATTGAGGTTATAAACTTGTCATTTTATTATGTATAAAAATA"}}, "key": {"LA-N-2 cells": {"tested_on": "LA-N-2 cells", "assay": "Retinoic acid treatment of LA-N-2 human neuroblastoma cells", "format": "cell-based", "conditions": "final concentration 10^−6M", "experimental": "LA-N-2 cells were obtained from Dr. Jan Blusztajn (Boston University, MA). The cells were cultured in Leibovitz L-15 medium (Gibco, BRL, Burlington, ON) containing 10% fetal calf serum and antibiotic-antimyotic mixture (Gibco) in a humidified incubator at 37° C. without CO2. The medium was replaced every 3 days. For treatment with retinoic acid (RA), the cells were sub-plated at a density of 0.5-1×10^6 cells/plate using 0.25% trypsin/1 mM EDTA (Gibco, BRL) and allowed to attach overnight. A fresh stock of 4 mM all-trans retinoic acid RA (Sigma, St. Louis, Mo.) was prepared in 100% ethanol under amber lighting. […] The media was changed every 48 h during the differentiation of the cells, which was complete after 7-14 days.\nFollowing fixation, HNSCs were briefly washed 3×5 min in Phosphate buffered saline (PBS), then blocked with 3% normal donkey serum in PBS containing 0.05% Tween 20 (PBS-T) and incubated with goat IgG polyclonal anti-human ChAT (1:500, Chemicon), mouseIgG2b monoclonal anti-human βIII-tubulin (1:1000, Sigma) or rabbit anti-human […] (GFAP) (1:1000, Sigma) overnight at 4° C. The corresponding secondary antibodies (donkey anti-goat, donkey anti-mouse, and donkey anti-rabbit, respectively) conjugated to rhodamine or FITC (Jackson IR Laboratories, Inc.) were added for a 2 hr incubation at RT in the dark. […]"}, "[1]": {"tested_on": "Human Neural Stem Cells (HNSCs)", "assay": "Differentiation of Hath1-transfected HNSCs (calretinin immunocytochemistry, Western blot, electron microscopy)", "format": "cell-based", "experimental": "An established a non-serum HNSC culture system was utilized to investigate the differentiation of human neural stem cells (HNSCs) within a defined condition. (Christopher L. Brannen and Kiminobu Sugaya, Regeneration and Transplantation, 11:5, 1123-1128 (2000)). The serum-free supplemented growth medium consisted of HAMS-F12 (Gibco, BRL, Burlington, ON), antibiotic/antimycotic mixture (1:100, Gibco), B27 (1:50, Gibco), human recombinant FGF-2 and EGF (20 ng/ml each, R and D Systems, Minneapolis, Minn.), and heparin (5 ug/ml, Sigma, St. Louis, Mo.). Cells were maintained in 20 ml of this medium at 37° C. in a 5% CO2 humidified incubation chamber.\nThe mammalian expression vector containing Hath1 gene was transfected into HNSCs by using the Neuroporter Kit (Gene Therapy Systems, Inc. San Diego, Calif.) and Hath 1 gene expression was confirmed by RT-PCR. These Hath1-transfected HNSCs were differentiated for 7 days by the depletion of mitotic factors (FGF-2, EGF) from the culture media. After the differentiation the cells were fixed for immunocytochemistry and Electron Microscopy.\nThe gene expression of Hath1 is assessed by RT-PCR with the following condition: 95° C. (60″), 56° C. (60″), 72° C. (60″) for 35 cycles, with an initial denaturation of 95° C. (5′) and final elongation of 72° C. (15′). The Hath1 gene is transfected into Human Neural Stem Cells (HNSCs) using the Neuroporter Kit. The Neuroporter kit utilizes a lipid-based transfection system for the use with cultured primary neurons, neuronal cell lines, and glial cells. DNA and Neuroporter are used in a ratio of 10 μg DNA/75 μl Neuroporter, utilizing 37.5 μl per well in a 6-well plate and with total volumes of 1.5 mL growth media per well. […]\nFollowing PBST washing, the cells are incubated with secondary antibody biotinylated anti-rabbit made in goat in PBS containing 0.05% Triton-X100 (PBST), with a dilution factor of 1:200. […] The cells are washed with water, ethanol, and xylene, coverslipped with permount, and ready for viewing with microscopy. […]"}, "HNSCs [2]": {"tested_on": "HNSCs", "assay": "Co-culture of HNSCs transfected with human Lhx8 gene with RA-treated LA-N-2 cells", "format": "cell-based", "conditions": "co-culture with RA-treated LA-N-2 cells", "experimental": "Using the same vector formation and transfection methods as in Example 2, the Human Lxh8 gene (SEQ ID NO: 6) is transfected into HNSCs. Transfected NHSC cells are cultured in a first treatment that includes LA-N-2 cells that are treated with RA and that express both Lhx8 and ChAT. A co-culture control comprises NHSCs that are not transfected but that are in the same culture vessel as LA-N-2 that are treated with RA and that express both Lhx8 and ChAT. For the first treatment and the co-culture control, HNSC cells are placed in cell culture inserts with an appropriate pore size and suspended in basal media (in the absence of FGF-2 and EGF and without the addition of other extrinsic differentiation factors) over differentiated LA-N-2 cells plated in 6-well plates.\nImmunochemistry follows the same procedure as in Example 2 above."}, "HNSCs [3]": {"tested_on": "HNSCs", "assay": "Co-culture of Lhx8-transfected HNSCs with RA-treated LA-N-2 cells, immunocytochemistry", "format": "cell-based, human", "experimental": "HNSCs culture: Human NSCs were originally purchased from BioWhittaker, Walkersville, Md. These cells have been expanded and passaged in a serum-free culture medium containing bFGF and EGF in our laboratory for over three years (Brannen & Sugaya, 2000). The HNSCs were cultured at a density of 50 spheres in 75 cm^2 culture flasks (Corning, Cambridge, Mass.) in 20 ml of a serum-free supplemented growth medium consisting of HAMS-F12 (Gibco, BRL, Burlington, ON), antibiotic-antimycotic mixture (1:100, Gibco), B27 (1:50, Gibco), human recombinant FGF-2 and EGF (20 ng/ml each, R&D Systems, Minneapolis, Minn.) and heparin (5 μg/ml, Sigma, St. Louis, Mo.) incubated at 37° C. in a 5% CO^2 humidified incubation chamber (Fisher, Pittsburgh, Pa.). To facilitate optimal growth conditions, HNSCs were sectioned into quarters every 2 weeks and fed by replacing 50% of the medium every 4-5 days.\nHNSCs were placed in 6-well poly-lysine coated plates and transfected with 4 μg pcDNA 3.1/Lhx8 plasmid using the Neuroporter transfection system (Gene Therapy Systems, see description in Example 1). Upon the insertion of the Lhx8 gene expressible sequence into the directional cloning vector, the expressible sequence was operatively linked to the CMV promoter, and was also positioned upstream (with regard to reading) of a polyadenylation transcription termination site. Lhx8 expression was confirmed after 48 hrs by RT-PCR using primers designed from the gene cDNA sequence; 5′[…]′ 3 (SEQ ID NO: 12, upper primer) and 5′[…]′3 (SEQ ID NO: 13, lower primer). To initiate differentiation, HNSCs were placed in serum-free basal medium, and allowed to differentiate for 10-15 days in culture.\nHNSCs (˜5×10^4) transfected with pcDNA 3.1/Lhx8 and non-transfected HNSCs (controls) were transferred into cell culture inserts with an appropriate pore size and suspended in basal media (in the absence of FGF-2 and EGF and without the addition of other extrinsic differentiation factors) over differentiated LA-N-2 cells plated in 6-well plates. […]"}}, "note": "“Also recorded” adds a separate entry of the source.", "data": [{"molecule": "CC1=C(/C=C/C(C)=C/C=C/C(C)=C/C(=O)O)C(C)(C)CCC1", "note": "[RA, all-trans retinoic acid]", "values": [{"measurement": "Lhx8 and ChAT gene expression by RT-PCR compared with non-treated cells", "setting": "LA-N-2 cells; RA", "value": "increased expression"}, {"measurement": "marker expression in LA-N-2 cells (immunostaining)", "setting": "LA-N-2 cells; RA-containing media, 7-14 days", "value": "expressed Lhx8, βIII-tubulin, and ChAT"}]}, {"molecule": "Hath1: Hath1 gene amplified from BAC clone RP11-680J17, cloned into mammalian expression vector pcDNAHismax TOPO TA under CMV promoter", "values": [{"measurement": "cell morphology by electron microscopy", "setting": "[1]; transfected HNSCs after differentiation", "value": "typical IEHC morphology; also recorded: distinct hair-like projections"}, {"measurement": "calretinin expression by Western blot", "setting": "[1]; transfected HNSCs differentiated for 7 days", "value": "single band specific to calretinin molecular weight"}, {"measurement": "calretinin (hair cell marker) expression by immunocytochemistry", "setting": "[1]; transfected HNSCs differentiated for 7 days without FGF-2, EGF", "value": "existence of cells expressing calretinin"}]}, {"molecule": "Human Lxh8 gene: Human Lxh8 gene (SEQ ID NO: 6) transfected into HNSCs with the vector and methods of Example 2", "values": [{"measurement": "differentiated cell type (βIII-tubulin, ChAT staining)", "setting": "HNSCs [2]", "value": "positive for βIII-tubulin and ChAT"}]}, {"molecule": "B1", "values": [{"measurement": "differentiated cell type (βIII-tubulin, ChAT staining)", "setting": "HNSCs [3]; co-culture with LA-N-2 cholinergic cells, serum-free, 10-20 days", "value": "differentiated into mainly βIII-tubulin and ChAT-positive cells; also recorded: differentiated mostly neurons with long extended processes"}, {"measurement": "percentage of transfected cells with characteristics of cholinergic neurons", "setting": "HNSCs [3]; one trial, end of trial", "value": "over 40%"}, {"measurement": "number of cells differentiating to cells having characteristics of cholinergic cells, versus non-transfected HNSCs", "setting": "HNSCs [3]; transfected HNSCs cultured without differentiated LA-N-2 cells", "value": "no significant difference"}]}]}
